Data reported in patent US11780826B2 (Amgen Inc., priority 2017, dated 2023).

What was measured:
[1] = test system: Male CD rats; test: Pressure-volume loop (PV Loop) protocol (invasive hemodynamics): ejection fraction (% EF) during intravenous infusion, MEE; format: in vivo; design: unit not given here; conditions: exposure at 10% increase in % EF from baseline, rat, corrected for rat plasma protein binding
Experimental: (§1) Formulations: A compound as disclosed herein and water were admixed together. Either 30% wt/vol or 40% wt/vol of hydroxypropyl beta-cyclodextrin (HPBCD) was added and the mixture stirred until dissolved.
(§2) Echocardiography/ultrasound protocol: Serial echocardiography was conducted with the aid of an imaging system suitable for rodent cardiac ultrasound. Male CD rats (6-10 weeks of age; 6-12 animals per group) were cannulated with a jugular vein catheter to enable delivery of test article by intravenous infusion. […] An imaging probe was fixed in position to acquire short axis (SAX), motion (M)—mode images of the left cardiac ventricle at the level of the papillary muscles. Baseline data was acquired prior to initiating test article delivery. Test article (compound as disclosed herein in a HPBCD formulation), or vehicle control, was delivered with the aid of an infusion pump connected to the jugular vein catheter. Infusion rate of test article was increased at 15 min intervals, to a maximum of 5 mL/kg/hr. Ultrasound images were acquired at 5 min intervals. Additionally whole blood (not exceeding 10 uL) was collected via a tail nick at the same 5 min intervals for subsequent exposure determination.
(§3) Whole blood samples were analyzed by protein precipitation and liquid chromatography tandem mass spectrometry (LC-MS/MS) using multiple reaction monitoring (MRM) in positive ionization mode. The lower limit of quantitation (LLOQ) in the assay was 1 ng/mL and the upper limit of quantitation (ULOQ) was 10,000 ng/mL.
Pressure-volume loop (PV Loop) protocol (invasive hemodynamics): Left ventricular catheterization with a pressure-volume transducing catheter was applied as an alternative method to derive pharmacodynamic endpoints. A pressure volume conductance catheter was inserted via the left carotid artery and advanced into the left ventricle. The electrical signal emitted from the volume catheter was used to derive measures of relative volume at 5 min intervals. From these measures, left ventricular end diastolic volume (LVEDV) and left ventricular end systolic volume (LVESV) were derived. Ejection fraction was then derived using the following formula: % EF=((LVEDV−LVESV)/LVEDV)*100. Minimally efficacious exposure (MEE) was defined as the exposure at which a 10% increase in % EF from baseline was observed. The MEE was derived by plotting assayed exposures against % EF and using non-linear curve fitting (log(exposure) vs. % EF; variable slope, 4 parameters). Response to vehicle at each time point was averaged and all test article responses were normalized to baseline and subtracted from time matched (averaged) vehicle responses. Animal preparation, vehicle/test article delivery and blood sampling for exposure determination was as described in Echocardiography/ultrasound protocol.

[2] = test system: Bovine cardiac myofibrils; test: In vitro model of dose-dependent myofibril ATPase modulation (AC1.4, pyruvate kinase/lactate dehydrogenase-coupled ATPase assay at pCa25); format: biochemical; conditions: concentration at which ATPase activity was 1.4-fold higher than the bottom of the dose curve, mean of a minimum of two independent tests
Procedure, shortened: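 Detergent-skinned bovine cardiac myofibrils (typically 0.25-1.0 mg/ml) in Ca-buffered (EGTA/CaCl2) PK/LDH-coupled ATPase assay: 12 mM K-PIPES pH 6.80, 2 mM MgCl2, 1 mM ATP, 1 mM DTT, 0.5 mM NADH, 1.5 mM PEP. Hydrolysis followed at 340 nm; dose response fit to 4-parameter equation; AC1.4 is mean of ≥2 tests.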

[3] = test system: Male CD rats; test: Echocardiography/ultrasound protocol: fractional shortening (% FS) during intravenous infusion, MEE; format: in vivo; design: unit not given here; conditions: Echocardiography, exposure at 10% increase in % FS from baseline, rat, formulation 40% HPbCD, corrected for rat plasma protein binding
Experimental: as §1, §2, §3
Offline data analysis of the SAX M-mode ultrasound images was conducted to derive measures of left ventricular end diastolic diameter (LVEDD), left ventricular end systolic diameter (LVESD) and subsequent calculation of fractional shortening (% FS) using the following formula: % FS=((LVEDD−LVESD)/LVEDD)*100. Minimally efficacious exposure (MEE) was defined as the exposure at which a 10% increase in % FS from baseline was observed. The MEE was derived by plotting assayed exposures against % FS and using non-linear curve fitting (log(exposure) vs. % FS; variable slope, 4 parameters). Response to vehicle at each time point was averaged and all test article responses were normalized to baseline and subtracted from time matched (averaged) vehicle responses.

SMILES	AC1.4 [2]	MEE* (unbound), minimally efficacious exposure ([1]; formulation 40% HPbCD pH 4 NaOH)	MEE* (unbound), minimally efficacious exposure ([1]; formulation 40% HPbCD)	MEE* (unbound), minimally efficacious exposure [3]
N#CC1CN(S(=O)(=O)N2CCC[C@H](C(=O)N3CCC[C@@H]3C(=O)NCc3ccc(C(F)(F)F)cc3)C2)C1 [Example 67, 1-(((3S)-1-((3-cyano-1-azetidinyl)sulfonyl)-3-piperidinyl)carbonyl)-N-(4-(trifluoromethyl)benzyl)-D-prolinamide]	0.07786 µM	1.05	–	–
CS(=O)(=O)c1cccc(C(=O)N2CCCC[C@@H]2C(=O)N[C@@H](c2cc(F)c(Cl)cc2F)C2CC2)c1 [Example 113, (2R)-N-((R)-(4-chloro-2,5-difluorophenyl)(cyclopropyl)methyl)-1-(3-(methylsulfonyl)benzoyl)-2-piperidinecarboxamide]	0.1763 µM	–	0.04	–
N#CC1CN(S(=O)(=O)N2CCN[C@H](C(=O)N3CCC[C@@H]3C(=O)NCc3ccc(C(F)(F)F)cc3F)C2)C1 [Example 200, 1-(((2S)-4-((3-cyano-1-azetidinyl)sulfonyl)-2-piperazinyl)carbonyl)-N-(2-fluoro-4-(trifluoromethyl)benzyl)-D-prolinamide]	0.4083 µM	–	1.02	–
CS(=O)(=O)c1cncc(C(=O)N2[C@@H](C(=O)N[C@@H](c3cc(F)c(C(F)(F)F)cc3F)C3CC3)C[C@H]3C[C@H]32)c1 [Example 214, (1R,3R,5R)—N—((R)-cyclopropyl(2,5-difluoro-4-(trifluoromethyl)phenyl)methyl)-2-(5-(methylsulfonyl)nicotinoyl)-2-azabicyclo[3.1.0]hexane-3-carboxamide]	0.4665 µM	–	–	0.12
CS(=O)(=O)c1cccc(C(=O)N2C[C@@H](F)C[C@@H]2C(=O)N[C@@H](c2ccc(C(F)(F)F)cc2F)C2CC2)c1 [Example 402, (2R,4S)—N—((R)-cyclopropyl(2-fluoro-4-(trifluoromethyl)phenyl)methyl)-4-fluoro-1-(3-(methylsulfonyl)benzoyl)pyrrolidine-2-carboxamide]	1.381 µM	–	0.18	–
Cc1noc(C(=O)N2[C@@H](C(=O)N[C@@H](c3cc(F)c(C(F)(F)F)cc3F)C3COC3)C[C@H]3C[C@H]32)c1C [Example 824, (1R,3R,5R)-N-((R)-(2,5-difluoro-4-(trifluoromethyl)phenyl)(oxetan-3-yl)methyl)-2-(3,4-dimethylisoxazole-5-carbonyl)-2-azabicyclo[3.1.0]hexane-3-carboxamide]	8.874 µM	–	–	–
Cc1noc(C)c1C(=O)N1[C@@H](C(=O)N[C@@H](c2cc(F)c(C(F)(F)F)cc2F)C2COC2)C[C@H]2C[C@H]21 [Example 825, (1R,3R,5R)-N-((R)-(2,5-difluoro-4-(trifluoromethyl)phenyl)(oxetan-3-yl)methyl)-2-(3,5-dimethylisoxazole-4-carbonyl)-2-azabicyclo[3.1.0]hexane-3-carboxamide]	9.3793 µM	–	–	–
O=C(N[C@@H](c1cc(F)c(C(F)(F)F)cc1F)C1COC1)[C@H]1C[C@H]2C[C@H]2N1C(=O)c1cc(C(F)(F)F)no1 [Example 826, (1R,3R,5R)-N-((R)-(2,5-difluoro-4-(trifluoromethyl)phenyl)(oxetan-3-yl)methyl)-2-(3-(trifluoromethyl)isoxazole-5-carbonyl)-2-azabicyclo[3.1.0]hexane-3-carboxamide]	2.628 µM	–	–	–
CS(=O)(=O)c1cccc(C(=O)N2CCC[C@@H]2C(=O)N[C@@H](c2cc(F)c(C(F)(F)F)cc2F)[C@H]2C[C@@H](O)C2)c1 [Example 827, (R)-N-((R)-(2,5-difluoro-4-(trifluoromethyl)phenyl)((1s,3S)-3-hydroxycyclobutyl)methyl)-1-(3-(methylsulfonyl)benzoyl)pyrrolidine-2-carboxamide]	0.15 µM	–	–	–
CS(=O)(=O)c1cccc(C(=O)N2CCC[C@@H]2C(=O)N[C@@H](c2cc(F)c(C(F)(F)F)cc2F)[C@H]2C[C@H](O)C2)c1 [Example 828, (R)-N-((R)-(2,5-difluoro-4-(trifluoromethyl)phenyl)((lr,3R)-3-hydroxycyclobutyl)methyl)-1-(3-(methylsulfonyl)benzoyl)pyrrolidine-2-carboxamide]	0.1639 µM	–	–	–
CC1(O)CC([C@@H](NC(=O)[C@H]2C[C@H]3C[C@H]3N2C(=O)c2cccc(S(C)(=O)=O)c2)c2cc(F)c(C(F)(F)F)cc2F)C1 (stereo partly drawn) [Example 829, (1R,3R,5R)-N-((R)-(2,5-difluoro-4-(trifluoromethyl)phenyl)(3-hydroxy-3-methylcyclobutyl)methyl)-2-(3-(methylsulfonyl)benzoyl)-2-azabicyclo[3.1.0]hexane-3-carboxamide]	1.702 µM	–	–	–
O=C(N[C@@H](c1cc(F)c(C(F)(F)F)cc1F)[C@H]1C[C@H](O)C1)[C@H]1C[C@H]2C[C@H]2N1C(=O)c1ccnc(C(F)F)c1 [Example 831, (1R,3R,5R)-N-((R)-(2,5-difluoro-4-(trifluoromethyl)phenyl)((lr,3R)-3-hydroxycyclobutyl)methyl)-2-(2-(difluoromethyl)isonicotinoyl)-2-azabicyclo[3.1.0]hexane-3-carboxamide]	0.6115 µM	–	–	–

Now from value to compound, other results behind:

AC1.4 [2]	SMILES	MEE* (unbound), minimally efficacious exposure ([1]; formulation 40% HPbCD pH 4 NaOH)	MEE* (unbound), minimally efficacious exposure ([1]; formulation 40% HPbCD)	MEE* (unbound), minimally efficacious exposure [3]
0.1384 µM	N#CC1CN(S(=O)(=O)N2CCC[C@H](C(=O)N3CCC[C@@H]3C(=O)NCc3ccc(Cl)c(Cl)c3)C2)C1 [Example 91, 1-(((3S)-1-((3-cyano-1-azetidinyl)sulfonyl)-3-piperidinyl)carbonyl)-N-(3,4-dichlorobenzyl)-D-prolinamide]	–	0.04	–
0.2215 µM	C[C@@H](NC(=O)[C@H]1CCCN1C(=O)[C@H]1CCCN(S(=O)(=O)N2CC(C#N)C2)C1)c1ccc(Cl)cc1 [Example 135, N-((1R)-1-(4-chlorophenyl)ethyl)-1-(((3S)-1-((3-cyano-1-azetidinyl)sulfonyl)-3-piperidinyl)carbonyl)-D-prolinamide]	–	0.05	–
0.6461 µM	N#CC1CN(S(=O)(=O)N2CCC[C@H](C(=O)N3CCC[C@@H]3C(=O)NCc3ccc(C(F)F)cc3)C2)C1 [Example 261, 1-(((3S)-1-((3-cyano-1-azetidinyl)sulfonyl)-3-piperidinyl)carbonyl)-N-(4-(difluoromethyl)benzyl)-D-prolinamide]	–	0.16	–
0.7212 µM	N#CC1CN(S(=O)(=O)N2CCC[C@H](C(=O)N3CCC[C@@H]3C(=O)NCc3cc(F)cc(F)c3)C2)C1 [Example 287, 1-(((3S)-1-((3-cyano-1-azetidinyl)sulfonyl)-3-piperidinyl)carbonyl)-N-(3,5-difluorobenzyl)-D-prolinamide]	–	0.47	–
0.7943 µM	C[C@@H](NC(=O)[C@H]1CCCN1C(=O)[C@H]1CCCN(S(=O)(=O)N2CC(C#N)C2)C1)c1ccc(F)c(F)c1 [Example 301, 1-(((3S)-1-((3-cyano-1-azetidinyl)sulfonyl)-3-piperidinyl)carbonyl)-N-((1R)-1-(3,4-difluorophenyl)ethyl)-D-prolinamide]	–	0.19	–
0.8883 µM	C[C@@H](NC(=O)[C@H]1CCCN1C(=O)[C@H]1CCCN(S(=O)(=O)N2CC(C#N)C2)C1)c1ccc(F)cc1F [Example 325, 1-(((3S)-1-((3-cyano-1-azetidinyl)sulfonyl)-3-piperidinyl)carbonyl)-N-((1R)-1-(2,4-difluorophenyl)ethyl)-D-prolinamide]	–	0.41	–
